Data from EPA's ToxValDB 9.5 (doi:10.2903/j.efsa.2016.4554).

Columns and labels:
Folsomia candida = conditions: chronic/long-term; duration: 28 days; reproduction
Typhlodromus pyri = experiment: LR50; higher = less toxic; conditions: not reported; mortality
Colinus virginianus = conditions: reproduction developmental; duration: 22 weeks
Apis mellifera = conditions: acute, mortality
Oncorhynchus mykiss = conditions: acute; mortality
Daphnia magna = conditions: chronic/long-term; duration: 21 days
Pimephales promelas = conditions: chronic/long-term
Mus musculus = conditions: chronic; duration: 18 months; histopathology: neoplastic
Tagia sp. = conditions: chronic/long-term; duration: 56 days; other
Bibionidae = conditions: chronic/long-term; duration: 28 days

Row | SMILES | NOEC (Folsomia candida) | LR50 (Typhlodromus pyri) | NOEL (Colinus virginianus) | LD50 (Apis mellifera; dermal) | LD50 (Apis mellifera; oral, unspecified) | LD50 (Oncorhynchus mykiss) | NOEC (Daphnia magna) | NOEC (Pimephales promelas) | LOAEL (Rattus norvegicus; acute, neurology) | NOAEL (Rattus norvegicus; reproduction developmental, M, body weight) | NOAEL (Rattus norvegicus; subchronic, duration: 90 days, oral, organ weight) | NOAEL (Mus musculus) | NOEC (Tagia sp.) | NOEC (Bibionidae)
1 | CC(=O)C(C)(C)NC(=O)c1cc(Cl)cc(Cl)c1 [Benzamide, 3,5-dichloro-N-(1,1-dimethyl-2-oxopropyl)-] | 20 mg/kg |  |  |  |  |  |  |  |  |  |  |  |  | 
2 | C#CC(C)(C)NC(=O)c1cc(Cl)cc(Cl)c1 [Propyzamide] | 1.4 mg/kg | 1890 g/ha | 30.9 mg/kg-day | > 100 µg/piece | > 100 µg/piece | > 4.7 mg/L | 0.6 mg/L | 0.224 mg/L | 40 mg/kg-day | 12.1 mg/kg-day | 4.5 mg/kg-day | 5 mg/kg-day | 3.3 mg/kg | 0.34 mg/L
